Results: ChEMBL document CHEMBL2074050, “Reversal of MRP-mediated multidrug resistance in human lung cancer cells by the antiprogestatin drug RU486” (Biochem Biophys Res Commun, 1999)

Experiments:
Format in all cases: functional, cell-based
[1] = target: T1, Multidrug resistance-associated protein 1 (Homo sapiens, UniProt P33527); test: TP_TRANSPORTER: increase in Calcein intracellular accumulation (Calcein: 0.5 uM, RU486: 50 uM) in GLC4/Sb30 cells; conditions: glc4/sb30, 50 µM
[2] = target: T1, Multidrug resistance-associated protein 1; test: TP_TRANSPORTER: increase in Calcein intracellular accumulation (Calcein: 0.5 uM, Probenecid: 2000 uM) in GLC4/Sb30 cells; conditions: glc4/sb30, 2000 µM
[3] = target: T1, Multidrug resistance-associated protein 1; test: TP_TRANSPORTER: increase in Calcein intracellular accumulation (Calcein: 0.5 uM, Progesterone: 50 uM) in GLC4/Sb30 cells; conditions: glc4/sb30, 50 µM

T1 sequence (P33527 whole entry): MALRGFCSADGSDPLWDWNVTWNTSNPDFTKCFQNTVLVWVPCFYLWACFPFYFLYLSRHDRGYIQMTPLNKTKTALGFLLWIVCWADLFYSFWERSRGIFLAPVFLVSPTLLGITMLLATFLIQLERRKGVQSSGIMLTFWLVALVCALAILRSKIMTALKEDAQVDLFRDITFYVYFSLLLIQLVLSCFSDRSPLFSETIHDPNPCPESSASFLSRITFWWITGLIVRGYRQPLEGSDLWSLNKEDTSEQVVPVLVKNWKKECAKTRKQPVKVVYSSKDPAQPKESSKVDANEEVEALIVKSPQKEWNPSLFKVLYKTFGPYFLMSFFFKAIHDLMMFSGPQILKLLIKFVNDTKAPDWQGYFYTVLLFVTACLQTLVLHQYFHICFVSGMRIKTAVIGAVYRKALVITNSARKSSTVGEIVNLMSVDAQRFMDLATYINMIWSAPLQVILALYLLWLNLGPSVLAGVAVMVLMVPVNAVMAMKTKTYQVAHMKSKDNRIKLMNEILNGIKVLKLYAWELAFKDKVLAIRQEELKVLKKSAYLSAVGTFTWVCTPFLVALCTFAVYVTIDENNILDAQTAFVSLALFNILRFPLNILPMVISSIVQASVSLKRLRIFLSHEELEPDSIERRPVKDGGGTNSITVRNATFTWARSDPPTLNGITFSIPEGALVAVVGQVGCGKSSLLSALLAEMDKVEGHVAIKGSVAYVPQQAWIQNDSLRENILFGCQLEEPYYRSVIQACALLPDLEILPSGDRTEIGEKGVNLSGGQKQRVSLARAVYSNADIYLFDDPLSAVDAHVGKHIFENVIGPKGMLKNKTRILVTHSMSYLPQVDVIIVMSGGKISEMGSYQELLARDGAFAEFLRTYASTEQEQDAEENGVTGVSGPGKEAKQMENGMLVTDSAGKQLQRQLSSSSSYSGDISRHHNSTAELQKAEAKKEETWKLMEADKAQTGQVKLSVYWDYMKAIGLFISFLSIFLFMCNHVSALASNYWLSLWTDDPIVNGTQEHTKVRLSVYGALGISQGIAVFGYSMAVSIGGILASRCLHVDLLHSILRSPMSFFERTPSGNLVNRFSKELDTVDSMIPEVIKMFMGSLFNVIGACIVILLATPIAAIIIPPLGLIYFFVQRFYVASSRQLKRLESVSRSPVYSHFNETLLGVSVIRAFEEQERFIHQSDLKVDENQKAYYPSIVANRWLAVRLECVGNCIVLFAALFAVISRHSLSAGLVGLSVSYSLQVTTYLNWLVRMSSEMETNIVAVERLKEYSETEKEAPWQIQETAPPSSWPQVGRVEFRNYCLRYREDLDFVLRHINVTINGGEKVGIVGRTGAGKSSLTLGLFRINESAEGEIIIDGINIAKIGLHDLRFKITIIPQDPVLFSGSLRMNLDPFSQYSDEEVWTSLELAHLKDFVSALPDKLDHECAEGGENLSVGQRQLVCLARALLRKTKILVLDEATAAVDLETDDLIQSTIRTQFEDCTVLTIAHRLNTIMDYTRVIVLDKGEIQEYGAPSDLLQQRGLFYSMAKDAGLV

CC#C[C@]1(O)CC[C@H]2[C@@H]3CCC4=CC(=O)CCC4=C3[C@@H](c3ccc(N(C)C)cc3)C[C@@]21C [MIFEPRISTONE]
Activity [1]: inhibitor [+]

CCCN(CCC)S(=O)(=O)c1ccc(C(=O)O)cc1 [PROBENECID]
Activity [2]: inhibitor [+]

CC(=O)[C@H]1CC[C@H]2[C@@H]3CCC4=CC(=O)CC[C@]4(C)[C@H]3CC[C@]12C [PROGESTERONE]
Activity [3]: inhibitor [+]
